Laboratory results taken from paper PMC12073402, “A Selective MAP3K1 Inhibitor Facilitates Discovery of NPM1 as a Member of the Network” (Molecules, 2025).

What was measured:
Experiment in all cases: KiNativ kinome profiling in PANC-1 lysate
Assay type in all cases: binding
AGK = molecular target: T1, AGK (Homo sapiens, UniProt Q53H12); conditions: ATP
T1 construct: endogenous in cells; host or cells: PANC-1 cell lysate
Outline: (§1)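 PANC-1 lysates were incubated with 5 μM inhibitor or DMSO, then labeled with a desthiobiotin-ATP acyl-phosphate probe that biotinylates conserved kinase lysines. Tryptic peptides were streptavidin-enriched and quantified by LC-MS/MS, reported as % change in MS signal from duplicate treated and duplicate control samples.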

AXL = molecular target: T2, AXL (Homo sapiens, UniProt P30530); conditions: Activation Loop
T2 construct: endogenous in cells; host or cells: PANC-1 cell lysate
Outline: as §1

CDK5 = molecular target: T3, CDK5 (Homo sapiens, UniProt Q00535)
T3 construct: endogenous in cells; host or cells: PANC-1 cell lysate
Outline: as §1

CK1d, CK1e = conditions: 5 µM; Lys2; DVKPDNFLMGLGKK
Outline: as §1

CK1g1 = molecular target: T4, CK1g1 (Homo sapiens, UniProt Q9HCP0); conditions: Lys2
T4 construct: endogenous in cells; host or cells: PANC-1 cell lysate
Outline: as §1

CLK3 = molecular target: T5, CLK3 (Homo sapiens, UniProt P49761)
T5 construct: endogenous in cells; host or cells: PANC-1 cell lysate
Outline: as §1

CSK = molecular target: T6, CSK (Homo sapiens, UniProt P41240)
T6 construct: endogenous in cells; host or cells: PANC-1 cell lysate
Outline: as §1

[1] = system: CaMK2a, CaMK2b, CaMK2d, CaMK2g; conditions: 5 µM; Lys2; DLKPENLLLASK
Outline: as §1

CaMKK2 = molecular target: T7, CaMKK2 (Homo sapiens, UniProt Q96RR4)
T7 construct: endogenous in cells; host or cells: PANC-1 cell lysate
Outline: as §1

DRAK1 = molecular target: T8, DRAK1 (Homo sapiens, UniProt Q9UEE5); conditions: Lys2
T8 construct: endogenous in cells; host or cells: PANC-1 lysate
Outline: as §1

HCK = molecular target: T9, HCK (Homo sapiens, UniProt P08631)
T9 construct: we opted to conduct a kinome screen (KiNativ) in PANC-1 cell lysates; endogenous in cells; host or cells: PANC-1 cell lysate
Outline: as §1

IRAK1 = molecular target: T10, IRAK1 (Homo sapiens, UniProt P51617); conditions: Lys2
T10 construct: we opted to conduct a kinome screen (KiNativ) in PANC-1 cell lysates; endogenous in cells; host or cells: PANC-1 cell lysate
Outline: as §1

MAP2K4 = molecular target: T11, MAP2K4 (Homo sapiens, UniProt P45985)
T11 construct: endogenous in cells; host or cells: PANC-1 cell lysate
Outline: as §1

MAP3K6 = molecular target: T12, MAP3K6 (Homo sapiens, UniProt O95382)
T12 construct: endogenous in cells; host or cells: PANC-1 cell lysate
Outline: as §1

MASTL = molecular target: T13, MASTL (Homo sapiens, UniProt Q96GX5)
T13 construct: endogenous in cells; host or cells: PANC-1
Outline: as §1

NLK = molecular target: T14, NLK (Homo sapiens, UniProt Q9UBE8); conditions: Lys2
T14 construct: endogenous in cells; host or cells: PANC-1 cell lysate
Outline: as §1

NuaK1 = molecular target: T15, NuaK1 (Homo sapiens, UniProt O60285); conditions: Lys1
T15 construct: endogenous in cells; host or cells: PANC-1 cell lysate
Outline: as §1

PCTAIRE1 = molecular target: T16, PCTAIRE1 (Homo sapiens, UniProt Q00536); conditions: Lys1
T16 construct: endogenous in cells; host or cells: PANC-1 cell lysate
Outline: as §1

PFTAIRE2 = molecular target: T17, PFTAIRE2 (Homo sapiens, UniProt Q96Q40); conditions: Lys2
T17 construct: endogenous in cells; host or cells: PANC-1 cell lysate
Outline: as §1

RSK1 domain2 = molecular target: T18, RSK1 domain2 (Homo sapiens, UniProt Q15418); conditions: Lys2
T18 construct: endogenous in cells; host or cells: PANC-1 cell lysate
Outline: as §1

RSK3 domain1 = molecular target: T19, RSK3 domain1 (Homo sapiens, UniProt Q15349); conditions: Lys2
T19 construct: endogenous in cells; host or cells: PANC-1 cell lysate
Outline: as §1

SBK = molecular target: T20, SBK (Homo sapiens, UniProt Q52WX2); conditions: Lys2
T20 construct: endogenous in cells; host or cells: PANC-1 cell lysate
Outline: as §1

TLK1 = molecular target: T21, TLK1 (Homo sapiens, UniProt Q9UKI8); conditions: Lys2
T21 construct: endogenous in cells; host or cells: PANC-1 cell lysate
Outline: as §1

TNK1 = molecular target: T22, TNK1 (Homo sapiens, UniProt Q13470); conditions: Lys1
T22 construct: endogenous in cells; host or cells: PANC-1 cell lysate
Outline: as §1

Wnk1, Wnk2, Wnk4 = conditions: 5 µM; ATP Loop; IGDLGLATLKR
Outline: as §1

T3 sequence (Q00535 whole entry): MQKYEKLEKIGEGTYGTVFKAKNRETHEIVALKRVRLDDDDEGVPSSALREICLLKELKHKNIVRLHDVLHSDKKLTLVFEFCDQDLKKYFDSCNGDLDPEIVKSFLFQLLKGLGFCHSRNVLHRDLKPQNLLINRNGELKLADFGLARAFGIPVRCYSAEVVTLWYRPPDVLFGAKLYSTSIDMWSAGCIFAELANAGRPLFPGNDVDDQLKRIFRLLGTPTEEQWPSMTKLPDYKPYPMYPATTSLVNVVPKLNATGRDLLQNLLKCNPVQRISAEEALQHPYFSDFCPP
T13 sequence (Q96GX5 whole entry): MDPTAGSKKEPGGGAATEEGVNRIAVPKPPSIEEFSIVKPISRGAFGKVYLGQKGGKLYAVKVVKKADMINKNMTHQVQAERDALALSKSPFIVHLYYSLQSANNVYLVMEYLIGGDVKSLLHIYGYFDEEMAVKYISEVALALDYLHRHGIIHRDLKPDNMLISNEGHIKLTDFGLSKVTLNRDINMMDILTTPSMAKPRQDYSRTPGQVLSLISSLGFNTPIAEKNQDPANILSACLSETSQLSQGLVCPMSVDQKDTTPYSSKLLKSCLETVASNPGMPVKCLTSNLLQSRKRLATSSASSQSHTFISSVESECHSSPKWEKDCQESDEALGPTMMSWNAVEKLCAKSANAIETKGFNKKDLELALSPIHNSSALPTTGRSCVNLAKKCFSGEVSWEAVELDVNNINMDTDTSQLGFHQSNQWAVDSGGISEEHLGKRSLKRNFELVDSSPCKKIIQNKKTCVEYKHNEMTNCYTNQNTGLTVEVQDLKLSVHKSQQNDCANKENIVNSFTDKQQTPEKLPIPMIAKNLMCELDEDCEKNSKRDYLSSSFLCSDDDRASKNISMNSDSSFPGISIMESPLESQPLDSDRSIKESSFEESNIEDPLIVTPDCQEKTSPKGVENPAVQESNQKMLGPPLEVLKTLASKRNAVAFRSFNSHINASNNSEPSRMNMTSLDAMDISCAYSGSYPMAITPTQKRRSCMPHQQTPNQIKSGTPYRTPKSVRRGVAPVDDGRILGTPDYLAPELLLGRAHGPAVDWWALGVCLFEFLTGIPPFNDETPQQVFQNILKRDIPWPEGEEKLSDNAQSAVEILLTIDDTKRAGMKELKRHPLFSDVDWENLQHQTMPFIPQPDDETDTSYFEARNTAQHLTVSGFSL
T12 sequence (O95382 whole entry): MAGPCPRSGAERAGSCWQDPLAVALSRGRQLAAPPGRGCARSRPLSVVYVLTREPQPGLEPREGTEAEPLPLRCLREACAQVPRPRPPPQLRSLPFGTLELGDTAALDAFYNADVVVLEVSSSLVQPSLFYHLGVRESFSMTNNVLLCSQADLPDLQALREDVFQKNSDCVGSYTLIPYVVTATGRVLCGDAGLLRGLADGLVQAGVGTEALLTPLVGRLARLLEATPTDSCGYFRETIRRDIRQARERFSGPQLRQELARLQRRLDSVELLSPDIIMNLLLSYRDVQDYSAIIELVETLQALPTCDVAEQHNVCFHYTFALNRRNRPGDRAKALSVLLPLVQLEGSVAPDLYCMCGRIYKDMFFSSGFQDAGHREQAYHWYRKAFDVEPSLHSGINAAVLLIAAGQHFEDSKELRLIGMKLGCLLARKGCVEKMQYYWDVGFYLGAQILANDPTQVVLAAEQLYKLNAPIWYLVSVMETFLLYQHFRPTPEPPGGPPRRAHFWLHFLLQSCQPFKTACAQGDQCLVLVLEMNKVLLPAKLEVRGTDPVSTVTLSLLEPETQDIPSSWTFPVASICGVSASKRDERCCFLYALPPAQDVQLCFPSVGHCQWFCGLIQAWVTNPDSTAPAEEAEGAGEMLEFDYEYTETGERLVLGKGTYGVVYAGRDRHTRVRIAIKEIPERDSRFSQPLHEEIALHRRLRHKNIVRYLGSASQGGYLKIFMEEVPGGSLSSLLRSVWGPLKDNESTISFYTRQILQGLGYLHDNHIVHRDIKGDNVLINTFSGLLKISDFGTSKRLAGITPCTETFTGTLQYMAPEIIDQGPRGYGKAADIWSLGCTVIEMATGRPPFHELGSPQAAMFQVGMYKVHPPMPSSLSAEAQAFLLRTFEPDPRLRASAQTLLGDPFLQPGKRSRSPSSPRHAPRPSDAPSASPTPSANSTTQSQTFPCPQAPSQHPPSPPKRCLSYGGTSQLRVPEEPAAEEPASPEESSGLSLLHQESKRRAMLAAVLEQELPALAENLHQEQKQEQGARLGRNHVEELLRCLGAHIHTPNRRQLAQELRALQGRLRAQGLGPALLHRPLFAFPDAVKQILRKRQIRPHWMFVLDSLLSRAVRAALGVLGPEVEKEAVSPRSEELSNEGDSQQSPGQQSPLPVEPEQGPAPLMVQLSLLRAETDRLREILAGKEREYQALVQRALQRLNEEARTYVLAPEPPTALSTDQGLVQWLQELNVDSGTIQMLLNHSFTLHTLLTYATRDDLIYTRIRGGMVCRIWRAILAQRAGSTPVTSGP
T9 sequence (P08631 whole entry): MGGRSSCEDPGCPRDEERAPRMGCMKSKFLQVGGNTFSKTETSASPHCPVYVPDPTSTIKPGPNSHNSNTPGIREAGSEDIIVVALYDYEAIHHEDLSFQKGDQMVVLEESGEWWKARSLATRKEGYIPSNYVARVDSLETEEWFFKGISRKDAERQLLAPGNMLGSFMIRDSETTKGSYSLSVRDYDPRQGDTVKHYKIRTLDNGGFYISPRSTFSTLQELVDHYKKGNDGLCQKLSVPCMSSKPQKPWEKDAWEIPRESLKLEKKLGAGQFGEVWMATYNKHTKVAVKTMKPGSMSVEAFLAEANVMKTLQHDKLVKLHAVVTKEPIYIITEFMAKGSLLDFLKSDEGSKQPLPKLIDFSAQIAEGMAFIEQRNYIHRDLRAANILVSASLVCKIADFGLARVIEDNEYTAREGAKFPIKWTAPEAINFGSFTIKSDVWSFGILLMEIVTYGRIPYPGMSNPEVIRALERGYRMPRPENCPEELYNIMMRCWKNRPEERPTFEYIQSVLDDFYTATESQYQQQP
T7 sequence (Q96RR4 whole entry): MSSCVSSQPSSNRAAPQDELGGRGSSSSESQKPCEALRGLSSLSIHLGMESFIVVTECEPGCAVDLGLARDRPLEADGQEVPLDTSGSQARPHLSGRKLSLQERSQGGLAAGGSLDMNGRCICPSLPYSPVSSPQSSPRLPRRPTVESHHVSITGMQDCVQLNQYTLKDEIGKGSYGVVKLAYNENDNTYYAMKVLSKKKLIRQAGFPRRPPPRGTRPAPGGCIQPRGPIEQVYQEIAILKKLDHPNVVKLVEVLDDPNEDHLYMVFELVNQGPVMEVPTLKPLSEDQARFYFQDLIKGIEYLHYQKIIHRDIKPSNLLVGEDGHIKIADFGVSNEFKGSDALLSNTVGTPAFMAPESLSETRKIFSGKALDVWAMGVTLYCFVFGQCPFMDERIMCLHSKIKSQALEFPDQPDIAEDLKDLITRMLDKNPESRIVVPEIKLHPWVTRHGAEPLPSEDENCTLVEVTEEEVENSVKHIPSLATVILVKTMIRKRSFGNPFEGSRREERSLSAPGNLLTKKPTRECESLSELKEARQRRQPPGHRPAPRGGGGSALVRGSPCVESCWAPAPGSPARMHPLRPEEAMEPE
T11 sequence (P45985 whole entry): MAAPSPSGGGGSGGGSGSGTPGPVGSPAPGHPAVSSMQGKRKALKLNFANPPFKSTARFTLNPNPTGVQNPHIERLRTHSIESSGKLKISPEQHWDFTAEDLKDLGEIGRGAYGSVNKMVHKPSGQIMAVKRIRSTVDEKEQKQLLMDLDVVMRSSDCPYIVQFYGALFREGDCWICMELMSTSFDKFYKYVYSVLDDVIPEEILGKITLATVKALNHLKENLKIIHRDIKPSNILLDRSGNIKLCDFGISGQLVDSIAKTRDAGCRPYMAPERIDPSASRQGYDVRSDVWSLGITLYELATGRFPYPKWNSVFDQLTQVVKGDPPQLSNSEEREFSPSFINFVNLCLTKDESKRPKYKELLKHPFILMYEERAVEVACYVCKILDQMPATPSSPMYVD
T5 sequence (P49761 whole entry): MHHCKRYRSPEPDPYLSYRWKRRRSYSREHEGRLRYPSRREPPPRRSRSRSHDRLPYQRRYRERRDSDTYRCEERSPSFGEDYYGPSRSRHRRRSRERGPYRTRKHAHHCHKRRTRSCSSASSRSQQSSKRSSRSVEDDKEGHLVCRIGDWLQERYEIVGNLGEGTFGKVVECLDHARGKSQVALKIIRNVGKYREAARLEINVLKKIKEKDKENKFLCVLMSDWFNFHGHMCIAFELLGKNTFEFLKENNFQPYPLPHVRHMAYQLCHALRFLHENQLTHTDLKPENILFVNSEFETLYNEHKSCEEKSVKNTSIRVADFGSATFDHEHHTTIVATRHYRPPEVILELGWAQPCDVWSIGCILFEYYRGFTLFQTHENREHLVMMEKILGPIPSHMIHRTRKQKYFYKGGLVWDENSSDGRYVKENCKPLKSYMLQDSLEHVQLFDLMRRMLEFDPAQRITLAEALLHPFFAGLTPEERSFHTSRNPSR
T6 sequence (P41240 whole entry): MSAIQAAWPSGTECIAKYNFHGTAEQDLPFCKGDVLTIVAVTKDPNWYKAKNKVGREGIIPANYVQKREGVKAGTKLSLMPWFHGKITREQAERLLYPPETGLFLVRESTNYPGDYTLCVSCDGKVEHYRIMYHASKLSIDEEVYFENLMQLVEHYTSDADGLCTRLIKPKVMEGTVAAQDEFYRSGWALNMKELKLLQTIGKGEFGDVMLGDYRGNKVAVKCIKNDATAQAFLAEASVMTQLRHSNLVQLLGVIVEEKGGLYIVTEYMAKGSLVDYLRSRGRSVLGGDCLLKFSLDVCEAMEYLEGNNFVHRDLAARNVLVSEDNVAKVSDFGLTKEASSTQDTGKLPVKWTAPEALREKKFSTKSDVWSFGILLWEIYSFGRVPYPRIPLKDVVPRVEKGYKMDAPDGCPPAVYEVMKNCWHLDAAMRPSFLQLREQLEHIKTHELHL

Which inhibition at 5 µM (AGK) does the source give for Cn1cc(-c2cnc3ccc(NC(=O)Nc4ccc(F)c(C(F)(F)F)c4)cc3n2)cn1 [51-106, 1-(4-Fluoro-3-(trifluoromethyl)phenyl)-3-(3-(1-methyl-1H-pyrazol-4-yl)quinoxalin-6-yl)urea] here?
Its inhibition at 5 µM is at most 0%.

What about the inhibition at 5 µM (AXL) of the same compound?
The inhibition at 5 µM was at most 0%.

And the inhibition at 5 µM (CDK5; Lys1, NRETHEIVALKR)?
The inhibition at 5 µM was at most 0%.

And the inhibition at 5 µM (CDK5; Lys2, DLKPQNLLINR)?
The inhibition at 5 µM was 6.5%.

What about the “% Inhibition” value (CK1d, CK1e) of the same compound?
The value was “NB (NB = No Binding (≤ 0))”.

What about the inhibition at 5 µM (CK1g1) of the same compound?
Its inhibition at 5 µM is at most 0%.

And the inhibition at 5 µM (CLK3; ATP Loop, YEIVGNLGEGTFGKVVECLDHAR)?
The inhibition at 5 µM was at most 0%.

What about the inhibition at 5 µM (CLK3; Lys2, FLHENQLTHTDLKPENILFVNSEFETLYNEHK) of the same compound?
The inhibition at 5 µM was 4.4%.

What about the “% Inhibition” value (CSK; 5 µM, ATP Loop, VSDFGLTKEASSTQDTGKLPVK) of the same compound?
The value was “NB (NB = No Binding (≤ 0))”.

And the inhibition at 5 µM (CSK; Lys1, VAVKCIK)?
The inhibition at 5 µM was at most 0%.

What about the “% Inhibition” value [1] of the same compound?
The value was “NB (NB = No Binding (≤ 0))”.

And the inhibition at 5 µM (CaMKK2; Lys1, LAYNENDNTYYAMKVLSK)?
Its inhibition at 5 µM is 2.6%.

What about the inhibition at 5 µM (CaMKK2; Lys2, DIKPSNLLVGEDGHIK) of the same compound?
The inhibition at 5 µM was at most 0%.

What about the inhibition at 5 µM (DRAK1) of the same compound?
The inhibition at 5 µM was at most 0%.

And the “% Inhibition” value (HCK; 5 µM, ATP Loop, EGAKFPIKWTAPEAINFGSFTIK)?
Its value is “NB (NB = No Binding (≤ 0))”.

What about the inhibition at 5 µM (HCK; Lys1, […]) of the same compound?
Its inhibition at 5 µM is at most 0%.

What about the inhibition at 5 µM (IRAK1) of the same compound?
Its inhibition at 5 µM is at most 0%.

And the inhibition at 5 µM (MAP2K4; ATP Loop, LCDFGISGQLVDSIAKTR)?
The inhibition at 5 µM was 6%.

And the inhibition at 5 µM (MAP2K4; Lys2, DIKPSNILLDR)?
Its inhibition at 5 µM is at most 0%.

What about the inhibition at 5 µM (MAP3K6; 5 µM, Lys2, […]) of the same compound?
Its inhibition at 5 µM is at most 0%.

What about the “inhibition of MAP3K6 (in words)” value (MAP3K6; 5 μM, PANC-1 lysate) of the same compound?
The value was “did not inhibit”.

What about the inhibition at 5 µM (MASTL; ATP Loop, GAFGKVYLGQK) of the same compound?
Its inhibition at 5 µM is 8.6%.

And the inhibition at 5 µM (MASTL; Lys1, LYAVKVVK)?
Its inhibition at 5 µM is at most 0%.

What about the inhibition at 5 µM (NLK) of the same compound?
The inhibition at 5 µM was 5.9%.

What about the inhibition at 5 µM (NuaK1) of the same compound?
The inhibition at 5 µM was at most 0%.

And the inhibition at 5 µM (PCTAIRE1)?
The inhibition at 5 µM was at most 0%.

And the inhibition at 5 µM (PFTAIRE2)?
The inhibition at 5 µM was at most 0%.

And the inhibition at 5 µM (RSK1 domain2)?
The inhibition at 5 µM was 6.9%.

What about the inhibition at 5 µM (RSK3 domain1) of the same compound?
Its inhibition at 5 µM is at most 0%.

What about the inhibition at 5 µM (SBK) of the same compound?
Its inhibition at 5 µM is at most 0%.

And the inhibition at 5 µM (TLK1)?
The inhibition at 5 µM was 6.2%.

What about the inhibition at 5 µM (TNK1) of the same compound?
The inhibition at 5 µM was 1.9%.

What about the “% Inhibition” value (Wnk1, Wnk2, Wnk4) of the same compound?
The value was 4.6%.
